According to patent publication US11542273B2, “Amide compound having bet proteolysis-inducing action and medicinal application thereof” (MITSUBISHI TANABE PHARMA CORPORATION, priority 2018, dated 2023):

Columns and labels:
[1] = tested on: human prostate cancer LNCaP cells; test: Cytotoxic action on cancer cells (WST-8, 96 hr); assay type: cell-based; details: Homo sapiens, LNCaP, 96 h, read-out: LNCaP cytotoxic activity: IC50
Method: The cytotoxic action of the compound of the present invention against human cancer cells was evaluated in vitro. In this experiment, (+)-JQ1 (Nature volume 468, pages 1067-1073 (23 Dec. 2010)) known to have an inhibitory activity on the binding of BRD4 protein and a ligand therefor was used as a positive control drug. Respective cells were suspended in 10% FBS/RPMI1640, seeded in a 96 well plate and cultured at 5% CO2, 37° C. overnight. A test compound dissolved in DMSO was diluted with 10% FBS/RPMI1640 and added and the cells were further cultured for 96 hr. After culturing, the viable cell number was measured using a cell number measurement WST-8 kit (Kishida Chemical Co., Ltd.). As a control, the measurement was performed under conditions free of the test compound. The cytotoxic activity of the compound of the present invention against human prostate cancer LNCaP cells is shown in IC50 value in Table 1. […] It was calculated from the straight line connecting the cell survival rate at two points enclosing the 50% cell survival rate and the compound concentration. In addition, the cytotoxic activity against respective cancer cells of human acute myeloid leukemia MV-4-11 cell, human chronic myeloid leukemia K562 cell, human multiple myeloma MM.1S cell, human diffuse large B-cell lymphoma SU-DHL-6 cell, human T-cell leukemia Jurkat cells, human Burkitt lymphoma Raji cell, human castration-resistant prostate cancer PC-3 cell, human ovarian cancer A2780 cell, human bladder cancer 5637 cell, human breast cancer ZR-75-1 cell, human triple negative breast cancer MDA-MB-231 cell, human uterine sarcoma MES-SA cell, human gastric cancer SNU-16 cell, human non-small cell lung cancer NCI-H1975 cell, human small cell lung cancer NCI-H82 cell, human large cell lung cancer NCI-H460 cell, human colorectal cancer HCT116 cell, human glioma U-87 MG cell, human pancreatic cancer AsPC-1 cell, and human liver cancer Hep G2 cell is shown in IC50 value in Table 2.

BRD4 protein = BRD4 protein (Homo sapiens (Human), UniProt O60885); test: BRD4 protein degradation inducing action in cancer cells (immunofluorescence, Operetta); assay type: cell-based; details: LNCaP cells, 6 hr treatment, fluorescence intensity
Method: The degradation inducing action of the compound of the present invention on BRD4 protein in cancer cells was evaluated in vitro using human prostate cancer LNCaP cells. LNCaP cells were suspended in 10% FBS/RPMI1640, seeded in a 96 well Cell carrier plate (Perkin Elmer) and cultured at 5% CO2, 37° C. overnight. A test compound dissolved in DMSO was diluted with 10% FBS/RPMI1640 and added and the cells were further cultured for 6 hr. After culturing, the cells were immobilized with 4% para-formaldehyde/PBS and further subjected to a permeation treatment with 0.25% Triton X-100/PBS. Thereafter, the cells were blocked with 10% BSA/PBS, a solution containing Anti-Brd4 antibody (Abcam) or Anti-BRD4 (Sigma-Aldrich) as the primary antibody was added and the cells were incubated at 4° C. overnight. Thereafter, as the secondary antibody, a solution containing secondary antibody A shown below was added to Example compounds 1-190, 223 and 224, and a solution containing secondary antibody B shown below was added to Example compounds 191-222, and 0.5 μg/mL Hoechst 33342 (Sigma-Aldrich) and 14 μM Acti-Stain 555 Fluorescent Phalloidin (Cytoskeleton) were further added. After incubation for 1 hr, BRD4 protein amount was measured by Operetta (Perkin Elmer) as fluorescence intensity.
• Anti-Rabbit IgG(H+L), F(ab′)2 Fragment (Alexa Fluor 488 Conjugate) (Cell Signaling Technology), fluorescence intensity was measured at excitation: 495 nm, emission: 519 nm. Secondary Antibody B • Goat anti-Rabbit IgG(H+L) Cross-Adserbed Secondary Antibody (Alexa Fluor 546) (Thermo Fisher Scientific) fluorescence intensity was measured at excitation: 560 nm, emission: 572 nm.
The BRD4 protein degradation inducing activity of the compound of the present invention in LNCaP cells is shown in DC50 value in Table 3. The DC50 value is a concentration of the compound showing 50% fluorescence intensity when the fluorescence intensity thereof under compound untreated condition is 100%. It was calculated from the straight line connecting the fluorescence intensity at two points enclosing the 50% fluorescence intensity and the compound concentration.

| DC50 (BRD4 protein) [nM] | Compound | IC50 [1] [nM] |
| --- | --- | --- |
| 0.33 | COC(=O)C[C@@H]1N=C(c2ccc(-c3ccc(C(=O)N[C@H](C(=O)N4C[C@H](O)C[C@H]4C(=O)N[C@@H](CO)c4ccc(-c5scnc5C)cc4)C(C)(C)C)cc3)cc2)c2c(sc(C)c2C)-n2c(C)nnc21 [Example 215, methyl {(6S)-4-[4′-({(2S)-1-[(2S,4R)-4-hydroxy-2-({(1R)-2-hydroxy-1-[4-(4-methyl-1,3-thiazol-5-yl)phenyl]ethyl}carbamoyl)pyrrolidin-1-yl]-3,3-dimethyl-1-oxobutan-2-yl}carbamoyl)[1,1′-biphenyl]-4-yl]-2,3,9-trimethyl-6H-thieno[3,2-f][1,2,4]triazolo[4,3-a][1,4]diazepin-6-yl}acetate] | 0.31 |
| 0.5 | COC(=O)C[C@@H]1N=C(c2ccc(-c3cc(F)cc(C(=O)N[C@H](C(=O)N4C[C@H](O)C[C@H]4C(=O)N[C@@H](C)c4ccc(-c5scnc5C)cc4)C(C)(C)C)c3F)cc2)c2c(sc(C)c2C)-n2c(C)nnc21 [Example 175, methyl {(6S)-4-[2′,5′-difluoro-3′-({(25)-1-[(2S,4R)-4-hydroxy-2-({(1S)-1-[4-(4-methyl-1,3-thiazol-5-yl)phenyl]ethyl}carbamoyl)pyrrolidin-1-yl]-3,3-dimethyl-1-oxobutan-2-yl}carbamoyl)[1,1′-biphenyl]-4-yl]-2,3,9-trimethyl-6H-thieno[3,2-f][1,2,4]triazolo[4,3-a][1,4]diazepin-6-yl}acetate] | 0.3 |
| 0.28 | COC(=O)C[C@@H]1N=C(c2ccc(-c3cncc(C(=O)N[C@H](C(=O)N4C[C@H](O)C[C@H]4C(=O)N[C@@H](C)c4ccc(-c5scnc5C)cc4)C(C)(C)C)n3)cc2)c2c(sc(C)c2C)-n2c(C)nnc21 [Example 167, methyl [(6S)-4-{4-[6-({(2S)-1-[(2S,4R)-4-hydroxy-2-({(1S)-1-[4-(4-methyl-1,3-thiazol-5-yl)phenyl]ethyl}carbamoyl)pyrrolidin-1-yl]-3,3-dimethyl-1-oxobutan-2-yl}carbamoyl)pyrazin-2-yl]phenyl}-2,3,9-trimethyl-6H-thieno[3,2-f][1,2,4]triazolo[4,3-a][1,4]diazepin-6-yl]acetate] | 0.14 |
| 0.066 | COC(=O)C[C@@H]1N=C(c2ccc(-c3ccc4cc(C(=O)N[C@H](C(=O)N5C[C@H](O)C[C@H]5C(=O)N[C@@H](C)c5ccc(-c6scnc6C)cc5)C(C)(C)C)oc4c3)cc2)c2c(sc(C)c2C)-n2c(C)nnc21 [Example 164, methyl [(6S)-4-{4-[2-({(2S)-1-[(2S,4R)-4-hydroxy-2-({(1S)-1-[4-(4-methyl-1,3-thiazol-5-yl)phenyl]ethyl}carbamoyl)pyrrolidin-1-yl]-3,3-dimethyl-1-oxobutan-2-yl}carbamoyl)-1-benzofuran-6-yl]phenyl}-2,3,9-trimethyl-6H-thieno[3,2-f][1,2,4]triazolo[4,3-a][1,4]diazepin-6-yl]acetate] | 0.077 |

The remaining lines, values behind:

| Compound | DC50 (BRD4 protein) [nM] | IC50 [1] [nM] |
| --- | --- | --- |
| COC(=O)C[C@@H]1N=C(c2ccc(-n3ccc(C(=O)N[C@H](C(=O)N4C[C@H](O)C[C@H]4C(=O)N[C@@H](C)c4ccc(-c5scnc5C)cc4)C(C)(C)C)n3)cc2)c2c(sc(C)c2C)-n2c(C)nnc21 [Example 172, methyl [(6S)-4-{4-[3-({(2S)-1-[(2S,4R)-4-hydroxy-2-({(1S)-1-[4-(4-methyl-1,3-thiazol-5-yl)phenyl]ethyl}carbamoyl)pyrrolidin-1-yl]-3,3-dimethyl-1-oxobutan-2-yl}carbamoyl)-1H-pyrazol-1-yl]phenyl}-2,3,9-trimethyl-6H-thieno[3,2-f][1,2,4]triazolo[4,3-a][1,4]diazepin-6-yl]acetate] | 0.37 | 0.36 |
| COC(=O)C[C@@H]1N=C(c2ccc(-c3ccc(C(=O)N[C@H](C(=O)N4C[C@H](O)C[C@H]4C(=O)NCc4ccc(-c5scnc5C)cc4)C(C)(C)C)cc3F)cc2)c2c(sc(C)c2C)-n2c(C)nnc21 [Example 189, methyl {(6S)-4-[2′-fluoro-4′-({(2S)-1-[(2S,4R)-4-hydroxy-2-({[4-(4-methyl-1,3-thiazol-5-yl)phenyl]methyl}carbamoyl)pyrrolidin-1-yl]-3,3-dimethyl-1-oxobutan-2-yl}carbamoyl) [1,1′-biphenyl]-4-yl]-2,3,9-trimethyl-6H-thieno [3,2-f][1,2,4]triazolo [4,3-a][1,4]diazepin-6-yl}acetate] | 0.44 | 0.17 |
| COC(=O)C[C@@H]1N=C(c2ccc(-c3c(F)ccc(C(=O)N[C@H](C(=O)N4C[C@H](O)C[C@H]4C(=O)N[C@@H](C)c4ccc(-c5scnc5C)cc4)C(C)(C)C)c3F)cc2)c2c(sc(C)c2C)-n2c(C)nnc21 [Example 174, methyl {(6S)-4-[2′,6′-difluoro-3′-({(2S)-1-[(2S,4R)-4-hydroxy-2-({(1S)-1-[4-(4-methyl-1,3-thiazol-5-yl)phenyl]ethyl}carbamoyl)pyrrolidin-1-yl]-3,3-dimethyl-1-oxobutan-2-yl}carbamoyl)[1,1′-biphenyl]-4-yl]-2,3,9-trimethyl-6H-thieno[3,2-f][1,2,4]triazolo[4,3-a][1,4]diazepin-6-yl}acetate] | 0.31 | 0.37 |
| COC(=O)C[C@@H]1N=C(c2ccc(-c3ccc(C(=O)N[C@H](C(=O)N4C[C@H](O)C[C@H]4C(=O)NCc4ccc(-c5ocnc5C)cc4)C(C)(C)C)cc3)cc2)c2c(sc(C)c2C)-n2c(C)nnc21 [Example 218, methyl {(6S)-4-[4′-({(2S)-1-[(2S,4R)-4-hydroxy-2-({[4-(4-methyl-1,3-oxazol-5-yl)phenyl]methyl}carbamoyl)pyrrolidin-1-yl]-3,3-dimethyl-1-oxobutan-2-yl}carbamoyl) [1,1′-biphenyl]-4-yl]-2,3,9-trimethyl-6H-thieno [3,2-f][1,2,4]triazolo [4,3-a] [1,4]diazepin-6-yl}acetate] | 0.41 | 0.37 |
| Cc1ncsc1-c1ccc([C@H](C)NC(=O)[C@@H]2C[C@@H](O)CN2C(=O)[C@@H](NC(=O)CCCCCCc2ccc(C3=N[C@@H](C)c4nnc(C)n4-c4sc(C)c(C)c43)cc2)C(C)(C)C)cc1 [Example 194, (2S,4R)-1-{(2S)-3,3-dimethyl-2-[(7-{4-[(6S)-2,3,6,9-tetramethyl-6H-thieno[3,2-f][1,2,4]triazolo[4,3-a] [1,4]diazepin-4-yl]phenyl}heptanoyl)amino]butanoyl}-4-hydroxy-N-{(1S)-1-[4-(4-methyl-1,3-thiazol-5-yl)phenyl]ethyl}pyrrolidine-2-carboxamide] | 0.23 | 0.17 |
| COC(=O)C[C@@H]1N=C(c2ccc(N3CC[C@@H](OCC(=O)N[C@H](C(=O)N4C[C@H](O)C[C@H]4C(=O)N[C@@H](C)c4ccc(-c5scnc5C)cc4)C(C)(C)C)C3)cc2)c2c(sc(C)c2C)-n2c(C)nnc21 [Example Compound 69, methyl [(6S)-4-(4-{(3R)-3-[2-({(2S)-1-[(2S,4R)-4-hydroxy-2-({(1S)-1-[4-(4-methyl-1,3-thiazol-5-yl)phenyl]ethyl}carbamoyl)pyrrolidin-1-yl]-3,3-dimethyl-1-oxobutan-2-yl}amino)-2-oxoethoxy]pyrrolidin-1-yl}phenyl)-2,3,9-trimethyl-6H-thieno[3,2-f][1,2,4]triazolo[4,3-a][1,4]diazepin-6-yl]acetate] | 0.15 | 0.33 |
